As a reminder, the IC50 is the concentration needed to halve the response being measured. In general, melting point refers to the temperature, or range, at which the solid turns liquid.

One data set has as its target T1, Human PTP1B (1-321) (Homo sapiens, UniProt P18031).
T1 construct: Human PTP1B (1-321) was cloned from a human cDNA library; made in house; host or cells: E. coli
T1 sequence (P18031 1-321): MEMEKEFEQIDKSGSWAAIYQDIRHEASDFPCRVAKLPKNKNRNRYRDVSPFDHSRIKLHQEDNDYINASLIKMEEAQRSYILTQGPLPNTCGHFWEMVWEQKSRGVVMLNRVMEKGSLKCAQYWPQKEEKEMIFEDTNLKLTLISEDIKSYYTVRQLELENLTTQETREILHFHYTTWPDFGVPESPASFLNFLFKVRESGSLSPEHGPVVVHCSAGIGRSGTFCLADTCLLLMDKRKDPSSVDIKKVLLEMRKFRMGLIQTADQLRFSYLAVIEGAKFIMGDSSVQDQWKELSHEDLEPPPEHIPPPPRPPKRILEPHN
The data set can be described thus: In Vitro Inhibition of PTP1B (PTPase assay). The note with it: PTP1B inhibitory activity, procedures of Example 150. The class given is biochemical. On the procedure:
Human PTP1B (1-321) was cloned from a human cDNA library using conventional molecular biology techniques. The cDNA sequence was identical to the published human PTP1B sequence (Accession number M33689). The protein was expressed and purified from E. coli as described by Barford D. et. al J. Mol Biol (1994) 239, 726-730.
The measurement of PTPase activity was carried out using one of two methods:
The first method for the measurement of PTP1B inhibitory activity a tyrosine phosphorylated peptide based on the amino acid sequence of insulin receptor tyrosine autophosphorylation site 1146 (TRDI(pY)E) was used as substrate. The reaction conditions were as follows:
PTP1B (0.5-2 nM) was incubated with compound for 15 min in buffer containing 37.5 mM Bis-Tris buffer pH 6.2, 140 mMNaCl, 0.05% BSA and 2 mM DTT. The reaction was started by the addition of 50 μM substrate. After 20 min at room temperature (22-25° C.), the reaction was stopped with KOH and the amount of free phosphate measured using Malachite Green as previously described (Harder et al. 1994 Biochem J. 298; 395).
The second method was used for the measurement of general PTPase inhibitory activity across a panel of PTPases the substrate (6,8-difluoro-4-methylumbelliferyl phosphate (DiFMUP; from Molecular Probes) was used at the Km for each enzyme. The buffer conditions were identical as in the Malachite Green assay. The reaction was stopped with KOH. In this case the dephosphoryated product becomes fluorescent and the fluorescense read (Excitiation: […]/Emmission: 460 nM).
Regarding `CNc1nc(N)nc2cc(-c3ccccc3S(=O)(=O)N(C)C)ccc12` [Example 120, 2-(2-aAmino-4-methylamino-quinazolin-7-yl)-N,N-dimethyl-benzenesulfonamide], the IC50 turned out to be 1600 nM.
Still for that read-out and setting: as for `CNc1nc(N)nc2cc(-c3ccccc3SC)ccc12` [Example 58, N4-Methyl-7-(2-methylsulfanyl-phenyl)-quinazoline-2,4-diamine], the figure is 1010 nM; as for `Nc1nc(NCCO)c2ccc(-c3ccccc3F)cc2n1` [Example 41, 2-[2-Amino-7-(2-fluoro-phenyl)-quinazolin-4-ylamino]-ethanol], 19000 nM.
Consider `CNc1nc(N)nc2cc(-c3ccc(F)cc3C)ccc12` [Example 69, 7-(4-Fluoro-2-methyl-phenyl)-N4-methyl-quinazoline-2,4-diamine], for which the IC50 came out at 4040 nM.
For the molecule `CCS(=O)(=O)c1ccccc1-c1ccc2c(NC)nc(N)nc2c1` [Example 82, 7-(2-Ethanesulfonyl-phenyl)-N4-methyl-quinazoline-2,4-diamine], the half-maximal inhibitory concentration (IC50) is 1390 nM.
On to `Nc1nc(NCCO)c2ccc(-c3ccccc3C(F)(F)F)cc2n1` [Example 57, 2-[2-Amino-7-(2-trifluoromethyl-phenyl)-quinazolin-4-ylamino]-ethanol], for which the IC50 stood at 3340 nM.
The same measure, in the same setting: as for `Cc1cccc(C)c1-c1ccc2c(NCCO)nc(N)nc2c1` [Example 36, 2-[2-Amino-7-(2,6-dimethyl-phenyl)-quinazolin-4-ylamino]-ethanol], the figure is 3170 nM; as for `CNc1nc(N)nc2cc(-c3ccccc3S(=O)(=O)NC)ccc12` [Example 126, N-methyl-2-(2-amino-4-methylamino-quinazolin-7-yl)-benzenesulfonamide], 1940 nM.
Still for that read-out and setting: the same measure for `CNc1nc(N)nc2cc(-c3ccccc3[S+](C)[O-])ccc12` (stereo not drawn) [Example 71, 7-(2-Methanesulfinyl-phenyl)-N4-methyl-quinazoline-2,4-diamine]: 2780 nM; for `CNc1nc(N)nc2cc(-c3c(OC)cccc3OC)ccc12` [Example 21, 7-(2,6-Dimethoxy-phenyl)-N4-methyl-quinazoline-2,4-diamine]: 3500 nM; for `CNc1nc(N)nc2cc(-c3ccccc3C)ccc12` [Example 6, N4-Methyl-7-o-tolyl-quinazoline-2,4-diamine]: 3150 nM.
Consider `Cc1ccccc1-c1ccc2c(NCCO)nc(N)nc2c1` [Example 43, 2-(2-Amino-7-o-tolyl-quinazolin-4-ylamino)-ethanol], for which inhibition was half-maximal at 6020 nM (IC50).
In turn, `CCNc1nc(N)nc2cc(-c3c(C)cccc3C)ccc12` [Example 14, 7-(2,6-Dimethyl-phenyl)-N4-ethyl-quinazoline-2,4-diamine] showed an IC50 of 2480 nM. Against the preceding molecule, the IC50 is about 2.4-fold lower.
On the same count and under the same terms, the same measure for `CNc1nc(N)nc2cc(-c3c(C)cccc3C)ccc12` [Example 8, 7-(2,6-Dimethyl-phenyl)-N4-methyl-quinazoline-2,4-diamine]: 790 nM; for `CSc1ccccc1-c1ccc2c(NCCO)nc(N)nc2c1` [Example 75, 2-[2-Amino-7-(2-methylsulfanyl-phenyl)-quinazolin-4-ylamino]-ethanol]: 4180 nM; for `CCNS(=O)(=O)c1ccccc1-c1ccc2c(NC)nc(N)nc2c1` [Example 125]: 1890 nM.
For the molecule `CNc1nc(N)nc2cc(-c3c(C)cccc3Cl)ccc12` [Example 89, 7-(2-Chloro-6-methyl-phenyl)-N4-methyl-quinazoline-2,4-diamine], the IC50 is 1460 nM.
Turning to `CNc1nc(N)nc2cc(-c3ccccc3S(C)(=O)=O)ccc12` [Example 72, 7-(2-Methanesulfonyl-phenyl)-N4-methyl-quinazoline-2,4-diamine], the IC50 was 1440 nM.
On the same count and under the same terms, as for `CNc1nc(N)nc2cc(-c3c(Cl)cccc3Cl)ccc12` [Example 24, 7-(2,6-Dichloro-phenyl)-N4-methyl-quinazoline-2,4-diamine], the figure is 1110 nM.
The same measure, in the same setting: as for `Cc1cccc(C)c1-c1ccc2c(N(C)C)nc(N)nc2c1` [Example 9, 7-(2,6-Dimethyl-phenyl)-N4,N4-dimethyl-quinazoline-2,4-diamine], the figure is 14000 nM.

Tested on in a further data set: not given
Assay: not given
Conditions: not given
As to `CNc1nc(N)nc2cc(-c3ccccc3S(=O)(=O)NC)ccc12` [Example 126, N-methyl-2-(2-amino-4-methylamino-quinazolin-7-yl)-benzenesulfonamide], the melting point was in the range of 316 to 317 °C.

The values are drawn from US20090105477A1, “Quinazoline Protein Tyrosine Phosphatase Inhibitors” (priority 2004, published 2009).
